Measurements published in US7145015B2, “Benzocycloheptenes, process for their production, pharmaceutical preparations that contain that latter as well as their use for the production of pharmaceutical agents” (Schering AG, priority 1998, dated 2006).

In the case of O=S(=O)(CCCCCOc1ccc(C2=C(c3ccccc3)CCCc3cc(O)ccc32)cc1)c1ccccc1 [Example 53, 6-phenyl-5-[4-(5-phenylsulfonyl-pentyloxy)-phenyl]-8,9-dihydro-7H-benzocyclohepten-2-ol], the melting point is reported as 162 °C.

Compound CC(C)(C)c1ccc(SCCCCCOc2ccc(C3=C(c4ccccc4)CCCc4cc(O)ccc43)cc2)cc1 [Example 54, 5-{4-[5-(4-tert-Butyl-phenylthio)-pentyloxy]-phenyl}-6-phenyl-8,9-dihydro-7H-benzocyclohepten-2-ol] has a melting point of 139 °C.
